# Experimental data published in article PMC6920042 (Nature chemical biology, 2019).
# B1: N405A: His-tagged lysostaphin SH3b domain with N405A substitution, for NMR (protein)
# chain: AKYGTLYKSESASFTPNTDIITRTTGPFRSMPQSGVLKAGQTIHYDEVMKQDGHVWVGYTGNSGQRIYLPVRTWNKS
# modifications: left off: His-tag, N-terminal, kept
# B2: R427M: His-tagged lysostaphin SH3b domain with R427M substitution, for NMR (protein)
# chain: SESASFTPNTDIITMTTGPFRSMPQSGVLKAGQTIHYDEVMKQDGHVWVGYTGNSGQRIYLPVRTWNKS
# modifications: left off: His-tag, N-terminal, kept
# B3: W489L: His-tagged lysostaphin SH3b domain with W489L substitution, for NMR (protein)
# chain: SESASFTPNTDIITRTTGPFRSMPQSGVLKAGQTIHYDEVMKQDGHVWVGYTGNSGQRIYLPVRTWNKSTNTLGVLL
# modifications: left off: His-tag, N-terminal, kept
# Legend:
# Staphylococcus carnosus = conditions: before femB mutation; cited from earlier work
# [1] = tested on: Staphylococcus carnosus femB mutant; conditions: cited from earlier work
# [2] = NMR CSP residual binding of SH3b mutant domains to G5 ligand; conditions: 32 equivalents
# [3] = NMR CSP residual binding of SH3b mutant domains to P4 ligand; conditions: 32 equivalents
molecule,measurement,setting,value
lysostaphin: bacteriolytic enzyme produced and secreted by Staphylococcus simulans biovar staphylolyticus,MIC,Staphylococcus carnosus,0.01 µg/mL
same,increase in the MIC values associated with femB mutation,[1]; femB mutant vs parent,3000 fold
same,MIC,[1]; femB mutant,32 µg/mL
B1,"residual binding (ratio of chemical shift changes of mutant to WT, averaged over all amino acids)",[2],16%
B2,"residual binding (ratio of chemical shift changes of mutant to WT, averaged over all amino acids)",[3],1.6%
B3,"residual binding (ratio of chemical shift changes of mutant to WT, averaged over all amino acids)",[3],6.6%
